Test results from patent US20200306244A1, “WNT INHIBITORS FOR USE IN THE TREATMENT OF FIBROSIS” (NOVARTIS AG, priority 2016, published 2020).

Key:
[1] = test system: primary kidney fibroblasts; settings: Madan et al. 2016; cited from earlier work
skin fibrosis markers = settings: clinical trial; Rice et al. 2015; cited from earlier work
[2] = Plasma exposure after last oral dose in bleomycin model (C57/BI6); assay type: in vivo, mouse (female C57/BI6); settings: FIG. 1E
Description: (§1) The plasma concentrations of compound of formula (I′) were determined by a liquid chromatography-tandem mass spectrometry (LC/MS/MS) assay. Briefly, mouse plasma samples were extracted with a methanol-acetonitrile mixture (3:1, v/v). Supernatant was injected onto HPLC system with a Waters Atlantis T3 analytical column (2.1×30 mm, 3.5 μm, Waters Corp., Milford, Mass., USA). The mobile phases consisted of 0.1% formic acid in water (solvent A) and 0.1% formic acid in acetonitrile (solvent B), and a gradient elution method (0-1.5 min, 10% B to 95% B; 1.5-2.0 min, 95% B; 2.01 min, 10% B) at flow rate of 800 μL/min was employed for chromatographic separation. Mass spectrometric analysis was performed on a SCIEX API-4000 triple quadruple mass spectrometer (Applied Biosystems, Foster City, Calif., USA) using atmospheric pressure chemical ionization (APCI) in the positive ion mode. Multiple reaction monitoring (MRM) of compound of formula (I′) and internal standard was used for quantitative measurements, and peak integration was performed using Analyst™ 1.4 software. The lower limit of detection for the assay was 1 ng/mL. Pharmacokinetic parameters were calculated by non-compartmental regression analysis using an in house fitting program.

Tsk-1 mice fibrosis = assay: Tight skin (Tsk-1) mouse genetic fibrosis model; assay type: in vivo, mouse (Tsk-1); settings: for skin thickness: FIG. 3B; for myofibroblast count: FIG. 3D; for anti-fibrotic effects: Tsk-1 model
Description: In the Tsk-1 model (FIG. 3(A-F)), treatment with compound of formula (I′) was started at the age of 5 weeks and was continued for 5 weeks. Animals were treated with or without compound of formula (I′) at multiple dose levels twice daily using suspension formulation containing 0.5% methylcellulose and 0.5% tween 80.
(§2) The anti-fibrotic effects of compound of Formula (I′) on experimental skin fibrosis was evaluated by quantification of dermal or hypodermal thickening, respectively, analyses of myofibroblast counts and assessment of hydroxyproline content. Tissue samples were fixed in 10% phosphate-buffered formalin for 24 hours, then embedded in paraffin and cut into […] sections. The slides were stained with hematoxylin and eosin for better visualization of the tissue structure.
(§3) The hydroxyproline content was measured according to the method as described in hydroxyproline content (Woessner J. F. Arch. Biochem. Biophys. […], 93, 440-447).
(§4) The dermal thickness was analyzed with a microscope by measuring the maximal distance between the epidermal-dermal junction and the dermal-subcutaneous fat junction at 4 different skin sections in each mouse.
The Hypodermal thickness in TSK-1 mice was determined by measuring the thickness of the subcutaneous connective tissue beneath the panniculus carnosus at 4 different sites of the upper back in each mouse. The evaluation was performed by 2 independent examiners.
(§5) For quantification of myofibroblasts, skin sections were deparaffinized and incubated with 5% bovine serum albumin for 60 minutes. Cells positive for α-smooth muscle actin (α-SMA) were detected by incubation with monoclonal anti-α-SMA antibodies (clone 1A4; Sigma-Aldrich, Steinheim, Germany) for 2 hours at room temperature followed by incubation with 3% hydrogen peroxide for 10 minutes. […] antibodies labeled with horseradish peroxidase were used as secondary antibodies. The expression of α-SMA was visualized with 3,3′-diaminobenzidine tetrahydrochloride. Monoclonal mouse IgG antibodies were used as controls
To further test the anti-fibrotic effects of compound of formula (I′), we turned to a mouse genetic fibrosis model, the tight skin model (Tsk-1). Tsk-1 mice contain a spontaneous duplication mutation of fibrillin-1 gene, which leads to activation of TGFβ signaling, and the subsequent fibrosis (increased in dermal and hypodermal thickness).
Five week old wild type or Tsk-1 mice were treated with or without compound of formula (I′) b.i.d. for 5 weeks (FIG. 3A).

[3] = Plasma exposure after last oral dose in Tsk-1 model; assay type: in vivo, mouse (Tsk-1); settings: FIG. 3E
Description: as §1, with “Mass spectrometric analysis was performed on a SCIEX API-4000 triple quadruple mass spectrometer (Applied Biosystems, Foster City, Calif., USA) using atmospheric pressure chemical ionization (APCI) in the positive ion mode.” left out, “The lower limit of detection for the assay was 1 ng/mL.” left out
Similar to that described for the bleomycin-induced mouse fibrosis model, plasma exposures of compound of formula (I′) in this tight skin model were also determined following the last oral dose, and PK data are shown in FIG. 3E.

[4] = PK analysis of blood samples after last dose in bleomycin-treated Balb/C mice; assay type: in vivo, mouse (Balb/C); settings: 5 mg/kg b.i.d. oral for 3 weeks; FIG. 2A
Description: as §1, with “Mass spectrometric analysis was performed on a SCIEX API-4000 triple quadruple mass spectrometer (Applied Biosystems, Foster City, Calif., USA) using atmospheric pressure chemical ionization (APCI) in the positive ion mode.” left out, “The lower limit of detection for the assay was 1 ng/mL.” left out
(§6) In a separate study to confirm the on-target activity of compound of formula (I′) in a mouse fibrosis model, bleomycin was injected in Balb/C mice, with or without orally dosed compound of formula (I′) at 5 mg/kg b.i.d. for 3 weeks. […] Tissue samples were collected 7 hour after the last dose, and the Wnt pathway target gene Axin2 mRNA expression level was measured with qRT-PCR, with the housekeeping gene, Gapdh, as an internal control.

[5] = test system: Wnt pathway target gene Axin2 mRNA; assay: Axin2 mRNA expression in skin tissue of bleomycin-treated Balb/C mice (qRT-PCR/TaqMan); assay type: in vivo, mouse (Balb/C); settings: 5 mg/kg b.i.d. oral 3 weeks, tissue 7 hour after last dose, Gapdh internal control; FIG. 2B
Description: Total RNA was isolated from tissue samples and processed to perform quantitative RT-PCR analysis of […] mRNA expression, with Gapdh serving as an internal control according to the manufacturer's instructions, as previously described.
Data were analyzed with SDS 2.0 software (Applied Biosystems), statistical analysis was conducted using PRISM.
as §6, with “weeks. Blood samples at multiple time points after the last dose were collected.” for “weeks.”

[6] = test system: bleomycin-induced skin fibrosis; assay: Bleomycin-induced mouse skin fibrosis model, 3 weeks bleomycin then 3 weeks treatment; assay type: in vivo, mouse (female C57/BI6); settings: for dermal skin thickness: FIG. 1B
Description: In the bleomycin model (FIG. 1 (A-E) and FIG. 2 (A-B)), fibrosis was induced in 6-week-old female C57/BI6 mice (Charles River, Sulzfeld, Germany) by injection of 100 μL 0.5 mg/ml bleomycin into a defined skin area of 1 cm' between the shoulders at the back every other day for up to six weeks. Control mice were injected with 0.9% NaCl, the solvent of bleomycin. Another group of mice received bleomycin injections for 3 weeks followed by saline (NaCl) injections for the next 3 weeks to control for spontaneous regression of fibrosis. Animals were treated with or without compound of formula (I′) at multiple dose levels twice daily for indicated weeks using suspension formulation containing 0.5% methylcellulose and 0.5% tween 80. Each group of mice were killed and the skin sections analyzed.
as §2, §3, §4, §5
Porcupine Inhibitor Compound of Formula (I′) in the Bleomycin-Induced Mouse Fibrosis Model To test compound of formula (I′) for anti-fibrotic effects, bleomycin was injected in 6-week-old female C57/BI6 mice for 3 weeks to induce fibrosis (FIG. 1A). The control group was injected with saline. The bleomycin treated animals were further dosed with or without compound of formula (I′) b.i.d. for another 3 weeks. […] Similar observations have been obtained when examining the hydroxyproline content and myofibroblast count of mouse skin samples as shown in FIG. 1C and FIG. 1D.

[7] = test system: bleomycin-induced skin fibrosis; assay: Bleomycin mouse fibrosis model in Balb/C mice, skin thickness (FIG. 4); assay type: in vivo
Description: To test compound of formula (I′) and compound of formula (I″) in a mouse fibrosis model, bleomycin was injected in Balb/C mice, with or without orally dosed compound of formula (I′) (5 mg/kg b.i.d.) and compound of formula (I″) (1 mg/kg b.i.d.) for 3 weeks. Skin tissue samples were taken at the end of the study and embedded in paraffin and skin thickness was measured (FIG. 4). Furthermore, the bleomycin treated animals were treated with or without orally dosed compound of formula (I′) at a dose of 5 mg/kg b.i.d. and compound of formula (I″) at a dose of 1 mg/kg b.i.d. for three weeks.

[8] = all dose levels (2.5, 5, 10 mg/kg) b.i.d. for 5 weeks

Cc1cc(-c2ccc(CC(=O)Nc3ccc(-c4cccnc4)cc3)cc2)ccn1 [C59]
TGFβ-induced Axing induction [1]: could abrogate TGFβ-induced Axing induction

Fresolimumab: anti-TGFβ antibody
skin fibrosis markers (skin fibrosis markers): Reduction of the skin fibrosis markers has been observed

CC(=O)N1CCN(c2ccc(NC(=O)Cc3cnc(-c4ccnc(F)c4)c(C)c3)nc2)CC1 [compound of formula (I′), N-(5-(4-acetylpiperazin-1-yl)pyridin-2-yl)-2-(2′-fluoro-3-methyl-[2,4′-bipyridin]-5-yl)acetamide]
absorption and oral exposure ([2]; after last oral dose, 2.5-10 mg/kg b.i.d.): highly absorbed and showed high oral exposures
plasma exposures, dose proportionality ([2]; from […] to 10 mg/kg): increased approximately dose proportionally
skin thickness (Tsk-1 mice fibrosis; 5 and 10 mg/kg groups): reduced to levels lower than the baseline and closer to the control group
myofibroblast count (Tsk-1 mice fibrosis; 5 and 10 mg/kg groups): reduction of the myofibroblast count towards control level
hypodermal skin thickness (Tsk-1 mice fibrosis; H&E staining of mouse skin samples, FIG. 3F): significantly reduced hypodermal skin thickness
anti-fibrotic effects (Tsk-1 mice fibrosis): robust anti-fibrotic effects
skin thickness (Tsk-1 mice fibrosis; [8]): significant anti-fibrotic effects at all dose levels
hydroxyproline content (Tsk-1 mice fibrosis; all dose levels (2.5, 5, 10 mg/kg) b.i.d. for 5 weeks, FIG. 3C): significant anti-fibrotic effects at all dose levels
myofibroblast count (Tsk-1 mice fibrosis; [8]): significant anti-fibrotic effects at all dose levels
plasma exposures compared with bleomycin model ([3]; after last oral dose): comparable between the two separate experiments
plasma exposures, dose proportionality ([3]; from […] to 10 mg/kg): increased approximately dose proportionally
oral bioavailability [4]: good oral bioavailability
reduction of Axin2 mRNA expression [5]: 54%
dermal skin thickness ([6]; 5 mg/kg and 10 mg/kg groups, oral b.i.d. 3 weeks): reduced the skin thickness to levels lower than the baseline
fibrosis reversal (hydroxyproline content and myofibroblast count) ([6]; 5 and 10 mg/kg groups): strong evidence of fibrosis reversal
dermal skin thickness ([6]; all dose levels (2.5, 5, 10 mg/kg) oral b.i.d. for 3 weeks after 3 weeks bleomycin): reduced dermal skin thickness at all dose levels in a dose dependent manner
hydroxyproline content ([6]; all dose levels (2.5, 5, 10 mg/kg) oral b.i.d., FIG. 1C): to levels lower than the baseline and closer to the control group
myofibroblast count ([6]; all dose levels (2.5, 5, 10 mg/kg) oral b.i.d., FIG. 1D): to levels lower than the baseline and closer to the control group
dermal skin thickness ([7]; 5 mg/kg b.i.d. oral for three weeks): induce the reduction of dermal skin thickness

Cc1cc(-c2ncc(CC(=O)Nc3ccc(-c4cnccn4)cn3)cc2C)ccn1 [compound of formula (I″), 2-(2′,3-dimethyl-[2,4′-bipyridin]-5-yl)-N-(5-(pyrazin-2-yl)pyridin-2-yl)acetamide]
anti-fibrotic effects (Tsk-1 mice fibrosis): robust anti-fibrotic effects
dermal skin thickness ([7]; 1 mg/kg b.i.d. oral for three weeks): induce the reduction of dermal skin thickness
in vivo activity compared to compound of Formula (I′) ([7]; 1 mg/kg b.i.d. vs 5 mg/kg b.i.d.): showed even better in vivo activities
